This note sets out measurements from paper doi:10.1101/469072v1 (biorxiv, 2018).

The structures appear in SMILES notation. Like-named read-outs stand apart in the source and are kept apart here.

Test [1] has as its target NfGlck. As to the kind of experiment: coupled glucokinase assay, absorbance at […] nm. In kind it is biochemical, Naegleria fowleri.
The subject of test [2] is NfGlck. As to the kind of experiment: coupled glucokinase assay, absorbance at […] nm. It is filed as biochemical, Naegleria fowleri. To be noted: read-out: apparent Km, MgCl2.
Test [3] deals with T1, TbHK1 (Trypanosoma brucei, UniProt Q38C42).
T1 sequence (Q38C42 1-471): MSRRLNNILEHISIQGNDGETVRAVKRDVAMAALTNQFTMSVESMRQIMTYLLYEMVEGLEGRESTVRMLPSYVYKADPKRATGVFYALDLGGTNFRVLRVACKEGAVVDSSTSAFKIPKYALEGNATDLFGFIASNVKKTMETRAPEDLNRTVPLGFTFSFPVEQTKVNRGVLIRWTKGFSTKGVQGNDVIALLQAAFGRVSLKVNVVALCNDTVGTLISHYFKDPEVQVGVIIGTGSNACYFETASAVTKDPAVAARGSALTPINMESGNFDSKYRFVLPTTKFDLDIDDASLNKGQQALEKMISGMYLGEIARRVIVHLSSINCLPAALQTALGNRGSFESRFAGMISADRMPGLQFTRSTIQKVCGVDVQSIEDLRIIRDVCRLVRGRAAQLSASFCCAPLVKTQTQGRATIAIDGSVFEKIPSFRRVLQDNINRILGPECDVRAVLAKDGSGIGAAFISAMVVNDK
To be noted: read-out: TbHK1 IC50; inhibitor.

The target of test [4] is T2, HsGlck (Homo sapiens, UniProt P35557).
T2 sequence (P35557 1-465): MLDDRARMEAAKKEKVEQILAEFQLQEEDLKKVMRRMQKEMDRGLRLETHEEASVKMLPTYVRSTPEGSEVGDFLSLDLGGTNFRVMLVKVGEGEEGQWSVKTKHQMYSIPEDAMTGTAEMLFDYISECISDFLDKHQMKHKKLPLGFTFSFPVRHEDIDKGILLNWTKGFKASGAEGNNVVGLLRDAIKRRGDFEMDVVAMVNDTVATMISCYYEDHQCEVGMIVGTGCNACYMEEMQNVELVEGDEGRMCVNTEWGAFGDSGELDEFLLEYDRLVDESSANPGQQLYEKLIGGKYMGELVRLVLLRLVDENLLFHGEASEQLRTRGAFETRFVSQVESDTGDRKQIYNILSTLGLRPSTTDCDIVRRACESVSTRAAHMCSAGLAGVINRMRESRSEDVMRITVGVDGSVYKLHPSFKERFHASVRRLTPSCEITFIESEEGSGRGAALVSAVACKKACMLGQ
Briefly: biochemical.

For test [5], the target named is NfGlck. As to the kind of experiment: coupled glucokinase assay, absorbance at […] nm. It is filed as biochemical, Naegleria fowleri. To be noted: pH 7.4, MgCl2.
Test [6] addresses T1, TbHK1. Briefly: enzyme inhibition assay. In kind it is biochemical.
Test [7] has as its target T3, PfHK (Plasmodium falciparum, UniProt Q02155).
T3 sequence (Q02155 1-493): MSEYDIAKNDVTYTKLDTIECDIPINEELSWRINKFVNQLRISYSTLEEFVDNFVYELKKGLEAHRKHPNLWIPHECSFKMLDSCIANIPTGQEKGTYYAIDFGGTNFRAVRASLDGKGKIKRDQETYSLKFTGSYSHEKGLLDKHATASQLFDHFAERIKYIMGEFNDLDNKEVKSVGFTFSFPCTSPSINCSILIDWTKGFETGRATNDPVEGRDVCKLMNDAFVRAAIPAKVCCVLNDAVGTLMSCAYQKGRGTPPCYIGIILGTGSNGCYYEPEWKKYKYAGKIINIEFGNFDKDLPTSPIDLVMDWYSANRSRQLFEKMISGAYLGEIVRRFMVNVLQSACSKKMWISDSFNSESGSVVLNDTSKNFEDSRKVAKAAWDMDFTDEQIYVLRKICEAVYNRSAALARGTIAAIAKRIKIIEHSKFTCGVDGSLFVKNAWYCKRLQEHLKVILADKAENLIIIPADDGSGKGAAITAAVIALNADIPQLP
As to the kind of experiment: enzyme inhibition assay. It is filed as biochemical.

Test [8] has as its target T2, HsGlck. Briefly: enzyme inhibition assay. It is filed as biochemical.
[9] abbreviates: mixed inhibitor with respect to ATP.

As to `Nc1ncnc2c1ncn2[C@@H]1O[C@H](COP(=O)(O)OP(=O)(O)O)[C@@H](O)[C@H]1O` [ADP], the affinity in test [1] corresponds to a Ki of 116 ± 7 µM.

On to `Nc1ncnc2c1ncn2[C@@H]1O[C@H](COP(=O)(O)OP(=O)(O)OP(=O)(O)O)[C@@H](O)[C@H]1O` [ATP], for which, in test [2] (co-substrate glucose), the Michaelis constant (Km) was determined as 142 ± 9.9 µM.

Turning to `CC(C)(C)c1ccc(C(=O)Nc2cc(Cl)c(-c3ccc(C(F)(F)F)cc3)cc2C(=O)O)cc1` [SID162211070], the IC50 in test [3] and in test [4] was > 10 µM in each case.

For the compound `CC(C)(C)c1ccc(C(=O)Nc2cc(Cl)c(-c3ccc(C(=O)O)cc3)cc2C(=O)O)cc1` [SID162211072], the concentration for half-maximal inhibition (IC50) in test [3] is 3.5 µM; in test [4], > 10 µM.

On to `CC(C)(C)c1ccc(C(=O)Nc2cc(Cl)c(-c3ccc(OC(F)(F)F)cc3)cc2C(=O)O)cc1` [SID162211074], for which the IC50 in test [3] and in test [4] was > 10 µM in each case.

For `CC(C)(C)c1ccc(C(=O)Nc2cc(Cl)c(-c3cccc([N+](=O)[O-])c3)cc2C(=O)O)cc1` [SID162211082], the 50% inhibitory concentration (IC50) in test [3] and in test [4] was > 10 µM each time.

`NC(N)=Nc1ccc(-c2ccc(-c3ccc(N=C(N)N)cc3Cl)o2)c(Cl)c1` [compound 1, 2-[3-chloro-4-[5-[2-chloro-4-(diaminomethylideneamino)phenyl]furan-2-yl]phenyl]guanidine]: the half-maximal inhibitory concentration (IC50) is 2.02 ± 0.31 µM in test [5] (setting [9]), 2.9 ± 1.13 µM in test [6], 0.78 ± 0.17 µM in test [7] and > 10 µM in test [8].

Take `NC(N)=Nc1ccc(-c2ccc(-c3ccc(N=C(N)N)c(Cl)c3)o2)cc1Cl` [compound 2, 2-[2-chloro-4-[5-[3-chloro-4-(diaminomethylideneamino)phenyl]furan-2-yl]phenyl]guanidine]: the IC50 in test [5] (setting [9]) stood at 0.7 ± 0.09 µM; in test [6], 1.3 ± 0.43 µM; in test [7], 0.16 ± 0.06 µM; in test [8] it was 2.58 ± 0.53 µM.

Regarding `O=c1c2ccccc2[se]n1-c1ccccc1` [compound 3, 2-phenyl-1,2-benzisoselenazol-3(2H)-one], in test [5], the concentration for half-maximal inhibition (IC50) is 0.88 ± 0.06 µM.

Consider `O=c1c2ccccc2sn1-c1ccccc1` [compound 4, Ebsulfur], for which the 50% inhibitory concentration (IC50) in test [5] is > 10 µM.

On to `CC(C)(C)c1ccc(C(=O)Nc2cc(Cl)c(C3CC3)cc2C(=O)O)cc1` [compound 6, SID162211071], for which the figures for the IC50 in test [5], in test [6] and in test [8] were > 10 µM, 6.7 ± 0.38 µM and > 10 µM, respectively.

On to `CC(C)(C)c1ccc(C(=O)Nc2cc(Cl)c(-c3cccnc3)cc2C(=O)O)cc1` [compound 7, SID162211077], for which the IC50 in test [5], in test [6] and in test [8] was > 10 µM each time.

With `CC(C)(C)c1ccc(C(=O)Nc2cc(Cl)c(-c3ccccc3)cc2C(=O)O)cc1` [compound 8, SID144241590], the IC50 in test [5] was > 10 µM; in test [6], 0.28 µM; in test [7], > 10 µM; in test [8] it was > 10 µM.

With `CC(C)(C)c1ccc(C(=O)Nc2cc(Cl)c(-c3cccc(F)c3)cc2C(=O)O)cc1` [compound 9, SID162211078], the half-inhibitory concentration (IC50) in test [5], in test [6] and in test [8] was > 10 µM in each case.

Regarding `CC(C)(C)c1ccc(C(=O)Nc2cc(Cl)c(-c3ccccc3F)cc2C(=O)O)cc1` [compound 10, SID162211083], the concentration for half-maximal inhibition (IC50) is > 10 µM in test [5], 6.7 ± 1 µM in test [6] and > 10 µM in test [8].

Consider `CC(C)(C)c1ccc(C(=O)Nc2cc(Cl)c(-c3cccc(Cl)c3)cc2C(=O)O)cc1` [compound 11, SID162211084], for which the concentration for half-maximal inhibition (IC50) is 6.5 ± 0.61 µM in test [5], > 10 µM in test [6] and > 10 µM in test [8].

With `CC(C)(C)c1ccc(C(=O)Nc2cc(Cl)c(-c3ccc(F)c(Cl)c3)cc2C(=O)O)cc1` [compound 12, SID162211073], the IC50 in test [5] was 5.9 ± 0.26 µM; in test [6], > 10 µM; in test [8], > 10 µM.

As to `CC(C)(C)c1ccc(C(=O)Nc2cc(Cl)c(-c3ccc(Cl)c(Cl)c3)cc2C(=O)O)cc1` [compound 13, SID162211080], the IC50 is 2.9 ± 0.32 µM in test [5], > 10 µM in test [6] and > 10 µM in test [8].

In the case of `COc1cccc(-c2cc(C(=O)O)c(NC(=O)c3ccc(C(C)(C)C)cc3)cc2Cl)c1` [compound 14, SID162211075], the half-inhibitory concentration (IC50) in test [5] is > 10 µM; in test [6], 3.9 ± 0.65 µM.

Regarding `COc1ccccc1-c1cc(C(=O)O)c(NC(=O)c2ccc(C(C)(C)C)cc2)cc1Cl` [compound 15, SID162211076], the concentration for half-maximal inhibition (IC50) is > 10 µM in test [5], 9.3 ± 0.55 µM in test [6] and > 10 µM in test [8].

For `CC(C)(C)c1ccc(C(=O)Nc2cc(Cl)c(-c3ccc(O)cc3)cc2C(=O)O)cc1` [compound 16, SID162211079], the figures for the IC50 in test [5], in test [6] and in test [8] were > 10 µM, 3.1 ± 0.17 µM and > 10 µM, respectively.

Take `CC(C)(C)c1ccc(C(=O)Nc2cc(Cl)c(-c3ccccc3O)cc2C(=O)O)cc1` [compound 17, SID162211085]: the half-inhibitory concentration (IC50) is > 10 µM in test [5], 1.2 ± 0.1 µM in test [6] and > 10 µM in test [8].

For the compound `Cc1ccccc1-c1cc(C(=O)O)c(NC(=O)c2ccc(C(C)(C)C)cc2)cc1Cl` [compound 18, SID162211086], the concentration for half-maximal inhibition (IC50) in test [5], in test [6] and in test [8] was > 10 µM each time.

`N[C@H]1C(O)O[C@H](CO)[C@@H](O)[C@@H]1O` (stereo partly shown) [glucosamine] showed an inhibitory constant (Ki) in test [1] (competitive inhibitor of glucose) of 186 ± 20.6 µM.

`OC[C@H]1OC(O)[C@H](O)[C@@H](O)[C@@H]1O` (stereo partly shown) [glucose]: the Km in test [2] (co-substrate ATP) turned out to be 42.5 ± 7.3 µM.

The term Ki denotes a measure of affinity in units of concentration, obtained from inhibition or displacement. One may read the Km as the concentration of substrate that gives half-maximal velocity. One may read the IC50 as the midpoint of a concentration-inhibition curve.
